Biological target: T1, gelatinase A (Homo sapiens, UniProt P08253)
T1 construct: endogenous in cells; host or cells: human normal skin dermal fibroblasts (HNDF)
T1 sequence (P08253 110-660): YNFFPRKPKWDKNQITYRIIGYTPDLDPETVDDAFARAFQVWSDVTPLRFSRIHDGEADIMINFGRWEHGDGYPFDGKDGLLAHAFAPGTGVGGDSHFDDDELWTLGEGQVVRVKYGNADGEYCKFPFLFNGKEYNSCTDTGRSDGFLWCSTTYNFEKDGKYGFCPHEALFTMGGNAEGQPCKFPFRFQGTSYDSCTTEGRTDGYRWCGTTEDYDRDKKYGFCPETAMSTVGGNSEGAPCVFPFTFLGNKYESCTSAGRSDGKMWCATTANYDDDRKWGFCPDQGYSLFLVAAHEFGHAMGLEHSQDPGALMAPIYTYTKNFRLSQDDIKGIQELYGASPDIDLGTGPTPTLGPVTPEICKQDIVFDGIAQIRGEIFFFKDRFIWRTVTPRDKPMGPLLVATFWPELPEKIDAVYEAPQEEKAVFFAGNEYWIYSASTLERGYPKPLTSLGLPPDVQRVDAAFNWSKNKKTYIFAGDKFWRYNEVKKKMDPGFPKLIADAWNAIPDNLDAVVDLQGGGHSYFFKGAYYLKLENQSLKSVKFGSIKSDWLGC
Test: Inhibitory activity against gelatinase A (FITC-gelatin degradation, fluorescence)
Format: biochemical
Conditions: progelatinase A purified from human normal skin dermal fibroblasts (HNDF), activated with APMA; 0.05 % FITC-gelatin, 2 hours at 37°C
Experimental: (1) Inhibitory activity against gelatinase A.
The progelatinase A (7 µl; in assay buffer (90 µl) was purified from human normal skin dermal fibroblasts (HNDF). It was activated by the addition of 10 mM APMA (10 µl) for 1 hour at 37°C. The solution of activated gelatinase A (1 U/tube, 98 µl) was mixed with the solution of various concentrations of the test compound or the solution in which the test compound is not added, (2 µl), and 0.05 % FITC-gelatin (100 µl) and incubated for 2 hours at 37°C. The enzymatic reaction was terminated by the addition of 2 M Tris-HCl (pH 9.5) containing 94.7% ethanol (750 µl). The mixture was stirred and then allowed to stand for 30 minutes at 0°C. The mixture was centrifuged for 30 minutes at 900 x g. Inhibitory activity against gelatinase was determined by measuring the fluorescent intensity in supernatant (Ex = 495 nm, and Em = 520 nm).
In the above experimental method, APMA is p-aminophenylmercuric acetate and FITC is fluorescein isothiocyanate.

Row | Compound | IC50
1 | Cc1ccc(C#Cc2ccc(S(=O)(=O)CC(C)C(=O)NO)cc2)cc1 (stereo not drawn) [Example 28(3), N-hydroxy-2-methyl-3-[4-(4-tolylethynyl)phenylsulfonyl]propionamide] | 2.9 nM
2 | O=C(O)CCS(=O)(=O)c1ccc(NC(=O)c2ccccc2)cc1 [Example 8(2), 3-[4-(benzoylamino)phenylsulfonyl]propionic acid] | 540 nM
3 | CC(CS(=O)(=O)c1ccc(-c2cc3ccccc3o2)cc1)C(=O)NO (stereo not drawn) [Example 28(1), N-hydroxy-2-methyl-3-[4-(2-benzofuranyl)phenylsulfonyl]propionamide] | 1.4 nM
4 | O=C(O)CCS(=O)(=O)c1ccc(C#Cc2ccccc2)cc1 [Example 8(7), 3-[4-(phenylethynyl)phenylsulfonyl]propionic acid] | 400 nM
5 | CCCCCC#Cc1ccc(S(=O)(=O)CC(C)C(=O)NO)cc1 (stereo not drawn) [Example 28, N-hydroxy-2-methyl-3-[4-(1-heptynyl)phenylsulfonyl]propionamide] | 13 nM
6 | COc1ccc(S(=O)(=O)CC(NC(=O)C(NC(=O)OC(C)(C)C)c2ccccc2)C(=O)NO)cc1 (stereo not drawn) [Example 19(1), N-hydroxy-2-[N-[N-(t-butoxycarbonyl)phenylglycyl]amino]-3-(4-methoxyphenylsulfonyl)propionamide] | 11 nM

From EP0994104A1, “ARYL (SULFIDE, SULFOXIDE AND SULFONE) DERIVATIVES AND DRUGS CONTAINING THE SAME AS THE ACTIVE INGREDIENT” (ONO PHARMACEUTICAL CO., LTD., priority 1996, dated 1997)
